# In patent publication US20100160361A1, “TREATMENT OF MAJOR ADVERSE CARDIAC EVENTS AND ACUTE CORONARY SYNDROME USING SECRETORY PHOSPHOLIPASE A2 (SPLA2) INHIBITOR OR SPLA2 INHIBITOR COMBINATION THERAPIES” (priority 2008, published 2010):
# Columns and labels:
# [1] = Pharmacokinetics of A-002; conditions: in vivo
# stable CVD population = conditions: cited from earlier work
smiles,measurement,setting,value
"CCc1c(C(=O)C(N)=O)c2c(OCC(=O)OC)cccc2n1Cc1ccccc1 [A-002, [[3-(2-Amino-1,2-dioxoethyl)-2-ethyl-1-(phenylmethyl)-1H-indol-4-yl]oxy]acetic acid methyl ester]",absorption and conversion to active molecule,[1],rapidly absorbed and hydrolyzed to the active A-001 molecule
same,effect on cholesterol levels,"stable CVD population; once- or twice-daily administration, stable CVD population, diabetic and high baseline LDL-C subpopulations","decreases total cholesterol, LDL-C, total LDL-C particle, and small LDL-C particle levels"
same,effect on inflammatory markers,stable CVD population; stable populations,decreases levels of various inflammatory markers such as hs-CRP and sPLA2
